The values that follow come from paper PMC8400635, “A Bidirectional Permeability Assay for beyond Rule of 5 Compounds” (Pharmaceutics, 2021).

Data set [1] can be described thus: Standard bidirectional permeability assay, Caco-2 cells. Format: in vitro ADME. The note with it: human; for Papp A→B at 10 µM: read-out: Caco-2 Papp,AB; for Papp B→A at 10 µM: read-out: Caco-2 PappBA. (Caco-2 cells form a polarised layer with tight junctions and transporters.)
Data set [2] has as its system Caco-2 cells. As to the kind of experiment: Modified bidirectional permeability assay (24 h preincubation), Caco-2 cells. The note with it: Caco-2, modified assay; 5 µM zosuquidar.
Data set [3] has as its system P-gp. The data set is described as above. To be noted: human, Caco-2, pH 7.4, with zosuquidar 5 µM.
Test in data set [4]: as above
To be noted: human, Caco-2, pH 7.4.

In data set [5] the test system is P-gp (MDR1). As to the kind of experiment: Standard bidirectional permeability assay, MDCK-MDR1 cells. Format: in vitro ADME, canine. To be noted: dog, MDCK-MDR1, pH 7.4, 10 µM in donor; for Papp A→B at 10 µM: read-out: MDCK-MDR1 Papp,AB.
Test in data set [6]: as above
Format: in vitro ADME, canine. The note with it: dog, MDCK-MDR1, pH 7.4, 10 µM in donor, read-out: MDCK-MDR1 PappBA.

[7] abbreviates: pH 7.4, Caco-2, standard conditions.
The mark [8] stands for this setting: Caco-2, pH 7.4, standard assay, 10 µM in donor.

`Cc1nnc2n1-c1sc(CCC(=O)N3CCOCC3)cc1C(c1ccccc1Cl)=NC2` [Apafant, apafant]: the Papp in data set [1] (pH 7.4, Caco-2, standard assay, read-out: intrinsic permeability) worked out at 14 ×10⁻⁶ cm/s. Besides, in data set [1] (setting [7]), the Papp A→B was determined as 2.3 ×10⁻⁶ cm/s and the efflux ratio worked out at 15.9. Also, in data set [2], the “inhibition of efflux by zosuquidar (P-gp substrate)” value was “inhibited completely”. The same molecule registered a Papp A→B at 1 µM in data set [3] of 13 ×10⁻⁶ cm/s. In data set [4], the Papp A→B at 1 µM was 2.6 ×10⁻⁶ cm/s and the efflux ratio at 1 µM amounted to 13.8.

As for `COCCc1ccc(OCC(O)CNC(C)C)cc1` (stereo not drawn) [Metoprolol], in data set [5], the efflux ratio at 10 µM came out at 1 and the Papp A→B at 10 µM turned out to be 67.7 ×10⁻⁶ cm/s. Moreover, the Papp B→A at 10 µM in data set [6] is 68.5 ×10⁻⁶ cm/s. Moreover, in data set [1] (setting [8]), the Papp A→B at 10 µM was 54.3 ×10⁻⁶ cm/s and the Papp B→A at 10 µM amounted to 41 ×10⁻⁶ cm/s.

As to `CC(C)NCC(O)COc1cccc2ccccc12` (stereo not drawn) [Propranolol], the efflux ratio at 10 µM was determined as 0.8 in data set [5] and 1.1 in data set [1] (setting [8]). The Papp A→B at 10 µM in data set [5] turned out to be 38.4 ×10⁻⁶ cm/s; in data set [1] (setting [8]), 79 ×10⁻⁶ cm/s. Besides, the Papp B→A at 10 µM worked out at 32.6 ×10⁻⁶ cm/s in data set [6] and 69.5 ×10⁻⁶ cm/s in data set [1] (setting [8]).

Usually efflux ratio stands for a quotient of directional permeabilities that is used to spot active efflux.
